Measured values published in publication PMC5449446, “Metabolic Value Chemoattractants Are Preferentially Recognized at Broad Ligand Range Chemoreceptor of Pseudomonas putida KT2440” (Frontiers in Microbiology, 2017).

Experiments:
PcaY_PP-LBD [1] = target: T1, PcaY_PP-LBD (Pseudomonas putida, UniProt Q88JK6); experiment: biochemical; assay type: binding, Pseudomonas putida KT2440; conditions: for KD: ITC at 25°C, 25 μM protein, One Binding Site model, means and SD of three experiments
T1 construct: His-tag (from the pET28b vector; inferred from NdeI/BamHI cloning and HisTrap purification) (N); made in house; host or cells: Escherichia coli BL21 (DE3)
Experimental: Experiments were carried out at 25°C using a VP-ITC titration calorimeter (Microcal Inc., Northampton, Massachusetts). […] Obtained data were corrected with the heat changes measured for the injection of ligand into buffer. Data were normalized with the protein concentration (Bradford assay) and fitted with the “One Binding Site” model of the MicroCal version of the ORIGIN 7.0 software (OriginLab Corporation, Northampton, MA, United States), leaving all parameters floating.

[2] = test system: Pseudomonas putida KT2440; experiment: Quantitative capillary chemotaxis assay; assay type: cell-based; conditions: 30 min, wild type KT2440
Experimental: Subsequently, the cells were re-suspended in the same buffer, adjusted to an OD660 of 0.15 and 230 μl aliquots of this bacterial culture were placed into 96-well plates. For the quantitative assays, one-microliter capillary tubes (Microcaps, Drummond Scientific, Ref. […]) were heat-sealed at one end and filled with either the chemotaxis buffer (negative control) or chemotaxis buffer containing the chemoeffector. The capillaries were immersed into the bacterial suspension and incubated for 30 min at room temperature. Capillaries were subsequently removed from the bacterial suspension, rinsed with sterile water and the content expelled into 1 ml of M9 medium. Serial dilutions were plated onto LB medium (containing the appropriate antibiotics) and the number of colony forming units was determined. In all cases, data were corrected with the number of cells that swam into buffer containing capillaries.

P. putida KT2440 = experiment: Growth in M9 minimal medium with ligand as sole C-source; assay type: cell-based, Pseudomonas putida KT2440; conditions: 10 mM (2 mM for poorly soluble) ligand
Experimental: P. putida KT2440R was grown in the same medium supplemented with rifampicin (10 μg ml^-1). […] When necessary, the pH of the medium was adjusted to 7.0 prior to inoculation. Bacterial growth rates were monitored by measuring the OD660 until cultures reached the stationary phase. The growth rate during the exponential growth (m) was calculated according to m = (LnOD2-LnOD1).(t2-t1)^-1, where OD2/t2 and OD1/t1 correspond to the OD660/time at the end and the beginning of the time interval. The generation time (G) was defined by G = Ln2 μ^-1. […] Normalized growth yield per carbon source after 24 h was determined applying correlation factors between cell dry weight and OD660 determined in batch cultures and assuming that all the carbon source was consumed during growth. Data were fitted by linear least squares regression or submitted to the chi-squared test with Yates correction using in both cases the Graph Pad Prism v7.02 software.

McpH = target: McpH; set-up: method as in ref (2) (a number printed in a supplementary file, which may have a reference list of its own: not looked up in the article's list); conditions: ITC, purified recombinant LBD; ref (2); cited from earlier work
McpU = target: McpU; set-up: method as in ref (3) (a number printed in a supplementary file, which may have a reference list of its own: not looked up in the article's list); conditions: ITC, purified recombinant LBD; ref (3); cited from earlier work
McpA = target: McpA; set-up: method as in ref (3) (a number printed in a supplementary file, which may have a reference list of its own: not looked up in the article's list); conditions: ITC, purified recombinant LBD; ref (3); cited from earlier work
McpP = target: McpP; set-up: method as in ref (6) (a number printed in a supplementary file, which may have a reference list of its own: not looked up in the article's list); conditions: ITC, purified recombinant LBD; ref (6); cited from earlier work
PcaY_PP-LBD [3] = target: T1, PcaY_PP-LBD; set-up: species or system Pseudomonas putida KT2440; conditions: saturating ligand (400 μM), 10°C
Experimental: Experiments were performed in a Beckman Coulter Optima XL-A analytical ultracentrifuge (Beckman-Coulter, Palo Alto, CA, United States) equipped with UV-visible absorbance detection system, using an An50Ti 8-hole rotor, 12 mm path-length charcoal-filled epon double-sector centerpieces. The sedimentation velocity (SV) experiments were carried out at a rotor speed of 40,000 rpm and 10°C using 400 μl samples in analysis buffer. […] Analysis buffer with or without ligands was used as reference. […] A least squares boundary modeling of the SV data was used to calculate sedimentation coefficient distributions with the size-distribution c(s) method ([Schuck, 2000]) implemented in the SEDFIT v11.71 software. […] The multi-speed sedimentation equilibrium experiments were carried out at 10°C and 12,000, 14,000, and 18,000 rpm until equilibrium was reached. […] Generally two wavelengths were used per sample.

T1 sequence (Q88JK6 44-196): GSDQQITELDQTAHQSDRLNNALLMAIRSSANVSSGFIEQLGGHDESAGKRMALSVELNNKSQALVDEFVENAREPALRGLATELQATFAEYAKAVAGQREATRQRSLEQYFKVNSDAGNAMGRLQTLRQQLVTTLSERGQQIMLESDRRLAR

Nc1ccccc1C(=O)O [2-ABA, 2-Aminobenzoate]
Kd (PcaY_PP-LBD [1]): 89 µM | ∆G (PcaY_PP-LBD [1]; ITC): -5.52 ± 0.07 kcal/mol | ∆H (PcaY_PP-LBD [1]; ITC): -18.0 ± 1.8 kcal/mol

O=C(O)c1ccccc1Cl [2-CBA, 2-chlorobenzoate]
chemotactic response [2]: did not induce a chemotactic response | KD (PcaY_PP-LBD [1]): No binding

O=C(O)c1ccccc1O [2-HBA, 2-hydroxybenzoate]
chemotactic response [2]: much weaker | Kd (PcaY_PP-LBD [1]): 24 µM | ∆G (PcaY_PP-LBD [1]; ITC): -6.30 ± 0.03 kcal/mol | ∆H (PcaY_PP-LBD [1]; ITC): -21.0 ± 0.6 kcal/mol

Cc1ccccc1C(=O)O [2-MBA]
KD (PcaY_PP-LBD [1]): No binding

O=C(O)c1ccccc1[N+](=O)[O-] [2-NBA]
KD (PcaY_PP-LBD [1]): No binding

Nc1cccc(C(=O)O)c1 [3-ABA, 3-aminobenzoate]
Kd (PcaY_PP-LBD [1]): 138 µM | ∆G (PcaY_PP-LBD [1]; ITC): -5.26 ± 0.07 kcal/mol | ∆H (PcaY_PP-LBD [1]; ITC): -16.4 ± 1.2 kcal/mol

O=C(O)c1cccc(Cl)c1 [3-CBA, 3-chlorobenzoate]
Kd (PcaY_PP-LBD [1]): 34 µM | ∆G (PcaY_PP-LBD [1]; ITC): -6.09 ± 0.03 kcal/mol | ∆H (PcaY_PP-LBD [1]; ITC): -13.2 ± 0.3 kcal/mol

O=C(O)C1=CC(=O)C(O)C(O)C1 (stereo not drawn) [3-Dehydroshikimate, 3-dehydroshikimate]
Kd (PcaY_PP-LBD [1]): 6 µM | ∆G (PcaY_PP-LBD [1]; ITC): -7.11 ± 0.03 kcal/mol | ∆H (PcaY_PP-LBD [1]; ITC): -19.9 ± 0.3 kcal/mol | capacity to support growth as sole carbon source (P. putida KT2440): supported bacterial growth

O=C(O)c1cccc(O)c1 [3-HBA, 3-hydroxybenzoate]
KD (PcaY_PP-LBD [1]): No Binding

Cc1cccc(C(=O)O)c1 [3-MBA, 3-Methylbenzoate]
Kd (PcaY_PP-LBD [1]): 32 µM | ∆G (PcaY_PP-LBD [1]; ITC): -6.12 ± 0.04 kcal/mol | ∆H (PcaY_PP-LBD [1]; ITC): -21.9 ± 1.1 kcal/mol

O=C(O)c1cccc([N+](=O)[O-])c1 [3-NBA, 3-Nitrobenzoate]
Kd (PcaY_PP-LBD [1]): 61 µM | ∆G (PcaY_PP-LBD [1]; ITC): -5.74 ± 0.06 kcal/mol | ∆H (PcaY_PP-LBD [1]; ITC): -17.5 ± 0.3 kcal/mol

Nc1ccc(C(=O)O)cc1 [4-ABA, 4-aminobenzoate]
chemotactic response [2]: much weaker | Kd (PcaY_PP-LBD [1]): 98 µM | ∆G (PcaY_PP-LBD [1]; ITC): -5.46 ± 0.12 kcal/mol | ∆H (PcaY_PP-LBD [1]; ITC): -11.0 ± 0.4 kcal/mol

O=C(O)c1ccc(O)cc1 [4-HBA, 4-hydroxybenzoate]
Kd (PcaY_PP-LBD [1]): 7.2 µM | increase in affinity as compared to benzoate (PcaY_PP-LBD [1]; ITC): around 12 fold | ∆G (PcaY_PP-LBD [1]; ITC): -7.01 ± 0.08 kcal/mol | ∆H (PcaY_PP-LBD [1]; ITC): -33.2 ± 1.4 kcal/mol | capacity to support growth as sole carbon source (P. putida KT2440): supported bacterial growth

O=Cc1ccc(O)cc1 [4-Hbenzaldehyde, 4-hydroxybenzaldehyde]
KD (PcaY_PP-LBD [1]): No Binding | KD (PcaY_PP-LBD [1]; listed as 4-hydroxybenzaldehyde): devoid of binding

Cc1ccc(C(=O)O)cc1 [4-MBA, 4-Methylbenzoate]
Kd (PcaY_PP-LBD [1]): 41 µM | ∆G (PcaY_PP-LBD [1]; ITC): -5.97 ± 0.12 kcal/mol | ∆H (PcaY_PP-LBD [1]; ITC): -13.2 ± 0.9 kcal/mol

O=C(O)c1ccc([N+](=O)[O-])cc1 [4-NBA, 4-Nitrobenzoate]
Kd (PcaY_PP-LBD [1]): 50 µM | ∆G (PcaY_PP-LBD [1]; ITC): -5.86 ± 0.06 kcal/mol | ∆H (PcaY_PP-LBD [1]; ITC): -13.8 ± 1.2 kcal/mol

Nc1ncnc2[nH]cnc12 [Adenine]
Kd (McpH): 2.4 µM

O=C(O)CCCCC(=O)O [Adipate, adipate]
KD (PcaY_PP-LBD [1]): No binding | KD (PcaY_PP-LBD [1]; listed as adipate): No binding heats

O=C(O)c1ccccc1 [Benzoate, benzoate]
chemotactic response [2]: much weaker | Kd (PcaY_PP-LBD [1]): 90 ± 8 µM | ∆G (PcaY_PP-LBD [1]; ITC): -5.51 ± 0.06 kcal/mol | ∆H (PcaY_PP-LBD [1]; ITC): -13.3 ± 0.5 kcal/mol | capacity to support growth as sole carbon source (P. putida KT2440): supported bacterial growth

NCCCCCN [Cadaverine]
Kd (McpU): 22 µM

NCC(=O)O [Gly]
Kd (McpA): 35 µM

Nc1nc2nc[nH]c2c(=O)[nH]1 [Guanine]
Kd (McpH): 4.3 µM

O=c1[nH]cnc2nc[nH]c12 [Hypoxanthine]
Kd (McpH): 3.3 µM

C[C@H](N)C(=O)O [L-Ala]
Kd (McpA): 13 µM

N=C(N)NCCC[C@H](N)C(=O)O [L-Arg]
Kd (McpA): 1.2 µM

NC(=O)C[C@H](N)C(=O)O [L-Asn]
Kd (McpA): 4.3 µM

N[C@@H](CS)C(=O)O [L-Cys]
Kd (McpA): 0.6 µM

NC(=O)CC[C@H](N)C(=O)O [L-Gln]
Kd (McpA): 5.5 µM

CC[C@H](C)[C@H](N)C(=O)O [L-Ile]
Kd (McpA): 85 µM

CSCC[C@H](N)C(=O)O [L-Met]
Kd (McpA): 5.8 µM

N[C@@H](Cc1ccccc1)C(=O)O [L-Phe]
Kd (McpA): 2.3 µM

N[C@@H](CO)C(=O)O [L-Ser]
Kd (McpA): 43 µM

N[C@@H](Cc1ccc(O)cc1)C(=O)O [L-Tyr]
Kd (McpA): 12.1 µM

CC(C)[C@H](N)C(=O)O [L-Val]
Kd (McpA): 373 µM

C[C@H](O)C(=O)O [L-lactate]
Kd (McpP): 107 µM

O=C(O)CC(O)C(=O)O (stereo not drawn) [Malate, malate]
KD (PcaY_PP-LBD [1]): did not show any binding

CCC(=O)O [Propionate]
Kd (McpP): 34 µM

O=C(O)c1ccc(O)c(O)c1 [Protocatechuate, protocatechuate]
chemotactic response [2]: much weaker | Kd (PcaY_PP-LBD [1]): 6.4 µM | ∆G (PcaY_PP-LBD [1]; ITC): -7.08 ± 0.04 kcal/mol | ∆H (PcaY_PP-LBD [1]; ITC): -22.9 ± 1.2 kcal/mol | capacity to support growth as sole carbon source (P. putida KT2440): supported bacterial growth

c1ncc2nc[nH]c2n1 [Purine]
Kd (McpH): 2.4 µM

NCCCCN [Putrescine]
Kd (McpU): 2 µM

CC(=O)C(=O)O [Pyruvate]
Kd (McpP): 39 µM

O=C(O)[C@]1(O)C[C@@H](O)[C@@H](O)[C@H](O)C1 [Quinate, quinate]
chemotactic response [2]: very strong responses | Kd (PcaY_PP-LBD [1]): 3.7 µM | ∆G (PcaY_PP-LBD [1]; ITC): -7.40 ± 0.02 kcal/mol | ∆H (PcaY_PP-LBD [1]; ITC): -13.2 ± 0.4 kcal/mol | sedimentation coefficient s20,w of PcaY_PP-LBD in presence of ligand (PcaY_PP-LBD [3]): 3.1 S | capacity to support growth as sole carbon source (P. putida KT2440): supported bacterial growth

O=C(O)C1=CC(O)C(O)C(O)C1 (stereo not drawn) [Shikimate, shikimate]
chemotactic response [2]: very strong responses | Kd (PcaY_PP-LBD [1]): 4.4 µM | ∆G (PcaY_PP-LBD [1]; ITC): -7.30 ± 0.1 kcal/mol | ∆H (PcaY_PP-LBD [1]; ITC): -16.6 ± 1.1 kcal/mol | sedimentation coefficient s20,w of PcaY_PP-LBD in presence of ligand (PcaY_PP-LBD [3]): 3.1 S

NCCCCNCCCN [Spermidine]
Kd (McpU): 4.5 µM

O=C(O)CCC(=O)O [Succinate, succinate]
KD (PcaY_PP-LBD [1]): did not show any binding

O=c1[nH]c(=O)c2[nH]c(=O)[nH]c2[nH]1 [Uric acid]
Kd (McpH): 1.3 µM

COc1cc(C(=O)O)ccc1O [Vanillate, vanillate]
Kd (PcaY_PP-LBD [1]): 11 µM | ∆G (PcaY_PP-LBD [1]; ITC): -6.70 ± 0.03 kcal/mol | ∆H (PcaY_PP-LBD [1]; ITC): -12.8 ± 1.7 kcal/mol

COc1cc(C=O)ccc1O [Vanillin, vanillin]
KD (PcaY_PP-LBD [1]): No binding | KD (PcaY_PP-LBD [1]; listed as vanillin): absence of binding

O=c1[nH]c(=O)c2nc[nH]c2[nH]1 [Xanthine]
Kd (McpH): 2.7 µM
